30 compounds from US20070148184A1, “Survivin-derived peptides and use thereof” (priority 2003, published 2007) can be followed below.

Several values for one entry are separate records, joined by “and”; a condition that tells them apart may be missing. Equal values may be shown once. Entries after “also recorded” stand apart in the source; their conditions may differ. Residues, ends and D or L forms follow the SMILES beside them. No end group written: not given here.

One assay has as its target HLA-A3 (Homo sapiens, UniProt P04439). The assay can be described thus: Assembly assay, HLA-A3.
Details: not given
It counts as binding. As to the method: (§1) The binding affinity of synthetic peptides (Invitrogen, Carlsbad, Calif., USA) to HLA-A1, -A2, A3, or -A11 molecules metabolically labeled with [^35S]-methionine was measured in the assembly assay, as described previously (12). The assay is based on peptide-mediated stabilization of empty HLA molecules released upon cell lysis, from the TAP-deficient cell lines. Stably folded HLA-molecules were immune-precipitated using the HLA class I-specific, conformation-dependent mAb W6/32, and separated by isoelectric focusing (IEF) gel electrophoresis. MHC heavy chain bands were quantified using the ImageGauge Phosphorimager program (FUJI photo film Co., Carrollton, Tex., USA). The intensity of the band is proportional to the amount of peptide-bound class I MHC complex recovered during the assay. Subsequently, the extent of stabilization of the HLA-molecule is directly related to the binding affinity of the added peptide. The peptide concentration used to analyze the recovery of the HLA-molecules was 40, 4, 0.4, 0.04 μM for HLA-A1 and HLA-A11, and 100, 10, 1, 0.1, 0.01 μM for HLA-A2 and HLA-A3. The C50 value was subsequently calculated for each peptide as the peptide concentration sufficient for half maximal stabilization.
For `CC(C)C[C@H](NC(=O)[C@@H](N)CC(=O)O)C(=O)N[C@@H](C)C(=O)N[C@@H](CCC(N)=O)C(=O)N[C@@H](CS)C(=O)N[C@@H](Cc1ccccc1)C(=O)N[C@@H](Cc1ccccc1)C(=O)N[C@@H](CS)C(=O)N[C@@H](CCCCN)C(=O)O` [Sur53K9] (H-DLAQCFFCK-OH; N-terminus and C-terminus assumed), the “binding to HLA-A3, in words” value was “no detectable effect”.
Regarding `CC[C@H](C)[C@H](N)C(=O)N[C@@H](CC(C)C)C(=O)N[C@@H](CCCCN)C(=O)N[C@@H](CCC(=O)O)C(=O)N[C@H](C(=O)N[C@@H](CC(N)=O)C(=O)N[C@@H](CC(N)=O)C(=O)N[C@@H](CCCCN)C(=O)N[C@@H](CCCCN)C(=O)N[C@@H](CCCCN)C(=O)O)[C@@H](C)O` [Sur113L2], the “binding to HLA-A3, in words” value is “only bound weakly”.
Consider FLKDHRISTK [Sur13K9], for which the “binding to HLA-A3, in words” value is “no detectable effect”.

The same assay, now with this note: Table 4, HLA-A3; read-out: C50.
On to `CC[C@H](C)[C@H](N)C(=O)N[C@@H](CC(C)C)C(=O)N[C@@H](CCCNC(=N)N)C(=O)NCC(=O)N[C@@H](CO)C(=O)N[C@H](C(=O)N[C@@H](C)C(=O)N[C@@H](Cc1c[nH]cn1)C(=O)N[C@@H](CCCCN)C(=O)O)C(C)C` [C3, reference compound], for which the EC50 was 0.1 to 0.3 µM and 0.1 µM.
Turning to `CC[C@H](C)[C@H](N)C(=O)N[C@@H](CC(C)C)C(=O)N[C@@H](CCCCN)C(=O)N[C@@H](CCC(=O)O)C(=O)N[C@H](C(=O)N[C@@H](CC(N)=O)C(=O)N[C@@H](CC(N)=O)C(=O)N[C@@H](CCCCN)C(=O)N[C@@H](CCCCN)C(=O)N[C@@H](CCCCN)C(=O)O)[C@@H](C)O` [Sur113L2], the EC50 was above 100 µM.
`CC[C@H](C)[C@H](NC(=O)[C@@H](N)[C@@H](C)O)C(=O)N[C@@H](CCCNC(=N)N)C(=O)N[C@@H](CCCNC(=N)N)C(=O)N[C@@H](CCCCN)C(=O)N[C@@H](CC(N)=O)C(=O)N[C@@H](CC(C)C)C(=O)N[C@@H](CCCNC(=N)N)C(=O)N[C@@H](CCCCN)C(=O)O` [SurEx3-A3-1]: the EC50 came out at 0.5 µM.
For the compound CAFLSVKKQF [Sur 84-93], the EC50 is above 100 µM.
Same read-out and setting: next, FLKDHRISTF [Sur 13-22]: above 100 µM.
In the case of FLKDHRISTK [Sur13K9], the EC50 was above 100 µM.
Consider FLKLDRERAK [Sur 101-110], for which the EC50 was above 100 µM.
As for IAKETNNKKK [Sur 113-122], the EC50 is above 100 µM.
On to KLDRERAKNK [Sur 103-112], for which the EC50 was above 100 µM.
For the compound PTIRRKNLRK [SurEx3-A3-2], the EC50 is above 100 µM.
Regarding RISTFKNWPF [Sur 18-27], the EC50 is above 100 µM.
Same read-out and setting: the result for RITREEHKK [Sur2b-A3-1] reads above 100 µM; that for TLPPAWQPF [Sur 5-13], above 100 µM.

The subject of a further assay is peptide epitope-specific interferon-γ releasing effector cells. As to the kind of experiment: IFN-γ ELISPOT, Example 4 (PBL or TIL from cancer patients). The settings on record: HLA-A1; ten melanoma patients; data not shown. The assay is classed as cell-based, human. The procedure:
To extend the sensitivity of the ELISPOT assay, PBL were stimulated once in vitro prior to analysis. At day 0, PBL or crushed lymph nodes were thawed and plated as 2×10^6 cells in 2 ml/well in 24-well plates (Nunc, Roskilde, Denmark) in x-vivo medium (Bio Whittaker, Walkersville, Md.), […] heat-inactivated human serum, and 2 mM of L-glutamine in the presence of 10 μM of peptide. Two days later 20 IU/ml recombinant interleukin-2 (IL-2) (Chiron, Ratingen, Germany) was added to the cultures. The cultured cells were tested for reactivity in the ELISPOT on day 10.
The ELISPOT assay was used to quantify peptide epitope-specific interferon-γ releasing effector cells as previously described (16). Briefly, nitrocellulose bottomed 96-well plates (MultiScreen MAIP N45, Millipore, Hedehusene, Denmark) were coated with anti-IFN-γ antibody (1-D1K, Mabtech, Nacka, Sweden). The wells were washed, blocked by X-vivo medium, and the cells were added in duplicates at different cell concentrations. The peptides were then added to each well and the plates were incubated overnight. The following day, media was discarded and the wells were washed prior to addition of biotinylated secondary antibody (7-B6-1-Biotin, Mabtech). The plates were incubated for 2 hours, washed, and avidin-alkaline phosphatase conjugate (Calbiochem, Life Technologies, Inc. San Diego, Calif., USA) was added to each well. The plates were incubated at room temperature for one hour, washed, and the enzyme substrate NBT/BCIP (DakoCytomation Norden A/S, Glostrup, Denmark) was added to each well and incubated at RT for 5-10 min. Upon the emergence of dark purple spots, the reaction was terminated by washing with tap-water. The spots were counted using the ImmunoSpot® Series 2.0 Analyzer (CTL Analyzers, LLC, Cleveland, US) and the peptide specific CTL frequency could be calculated from the numbers of spot-forming cells. All assays were performed in duplicates for each peptide antigen.
In the case of PTENEPDLAQ [Sur47-56], the ELISPOT response entry is given as “no peptide-specific responses were detected”.

Still in this assay, the particulars now being: HLA-A2; ten cancer patients analyzed.
Consider `CC(C)C[C@H](NC(=O)[C@H](CCC(=O)O)NC(=O)[C@H](CCC(=O)O)NC(=O)[C@H](Cc1ccccc1)NC(=O)[C@H](CCC(N)=O)NC(=O)[C@H](CCCCN)NC(=O)[C@H](CCCCN)NC(=O)[C@@H](NC(=O)[C@H](CO)NC(=O)[C@H](CC(C)C)NC(=O)[C@@H](N)Cc1ccccc1)C(C)C)C(=O)O` [Sur86-96], for which the “patients with CTL response in PBL” value is listed as “no responses could be detected”.

The next assay addresses T1, HLA-A2 (Homo sapiens, UniProt P04439, D140Y/D185E/D98H/E176V/E277Q/G131W/G231S/I119V/I121R/I166T/I218V/L300P/L318F/N151K/N90K/P208A/P217A/Q86G/Q94H/R138H/R169H/T345S).
T1 construct: stabilization of the class I molecules after loading of peptide to the peptide transporter deficient cell line T2; endogenous in cells; host or cells: T2 (TAP-deficient human hybrid cell line), metabolically labelled lysate
The assay can be described thus: Assembly assay for peptide binding to class I MHC, HLA-A2. The note with it: Example 1, Table 1. As to the method: This assembly assay is carried out as described previously (12,13), and it is based on stabilisation of the HLA molecule after loading of peptide to the peptide transporter deficient cell line T2. Subsequently, correctly folded stable HLA heavy chains are immunoprecipitated using conformation dependent antibodies and the peptide binding is quantitated.
Assembly assays for binding of the synthetic peptides to class I MHC molecules metabolically labeled with [35S]-methionine were carried out as described (12,13). The assembly assay is based on stabilization of the class I molecules after loading of peptide to the peptide transporter deficient cell line T2. Subsequently, correctly folded stable MHC heavy chains are immunoprecipitated using conformation-dependent antibodies. After IEF electrophoresis, gels were exposed to phosphoImager screens, and peptide binding was quantified using the Imagequant PhosphorImager program (Molecular Dynamics, Sunnyvale, Calif.).
as §1, with “Stably folded HLA-molecules were immune-precipitated using the HLA class I-specific, conformation-dependent mAb W6/32, and separated by isoelectric focusing (IEF) gel electrophoresis.” left out
Take ETAKKVRRAI [Sur10]: the “C50 (peptide concentration for half maximal binding to HLA-A2)” value is “did not bind; also recorded: Not binding”.
As for RAIEQLAAM [Sur2], the “C50 (peptide concentration for half maximal binding to HLA-A2)” value is on record as “did not bind; also recorded: Not binding”.
Same read-out and setting: the result for STFKNWPFL [Sur4] reads “did not bind; also recorded: Not binding”; that for SVKKQFEEL [Sur5], “did not bind; also recorded: Not binding”.
On the same count and under the same terms, next, TAKKVRRAI [Sur7]: “did not bind; also recorded: Not binding”.

The same assay, now with this note: Example 1, Table 1; read-out: C50 (peptide concentration for half maximal binding to HLA-A2).
For the compound `CC(C)C[C@H](NC(=O)[C@H](CCCCN)NC(=O)[C@H](CC(C)C)NC(=O)[C@H](Cc1ccccc1)NC(=O)[C@H](CCC(=O)O)NC(=O)CNC(=O)[C@H](CC(C)C)NC(=O)[C@@H](NC(=O)[C@@H](N)CC(C)C)[C@@H](C)O)C(=O)O` [Sur1], the EC50 was above 100 µM.
With `CC[C@H](C)[C@H](NC(=O)[C@H](C)NC(=O)[C@H](CCCNC(=N)N)NC(=O)[C@H](CCCNC(=N)N)NC(=O)[C@@H](NC(=O)[C@@H](N)CCCCN)C(C)C)C(=O)N[C@@H](CCC(=O)O)C(=O)N[C@@H](CCC(N)=O)C(=O)N[C@@H](CC(C)C)C(=O)O` [Sur3], the EC50 is above 100 µM.
Regarding `CC(C)C[C@H](NC(=O)[C@H](CCCCN)NC(=O)[C@H](CC(C)C)NC(=O)[C@@H](N)Cc1ccccc1)C(=O)N[C@@H](CC(=O)O)C(=O)N[C@@H](CCCNC(=N)N)C(=O)N[C@@H](CCC(=O)O)C(=O)N[C@@H](CCCNC(=N)N)C(=O)N[C@@H](C)C(=O)O` [Sur6], the EC50 came out at 30 µM.
For `CC(C)C[C@H](NC(=O)[C@H](Cc1ccccc1)NC(=O)[C@@H]1CCCN1C(=O)[C@H](CCC(N)=O)NC(=O)[C@H](Cc1c[nH]c2ccccc12)NC(=O)[C@H](C)NC(=O)[C@@H]1CCCN1C(=O)[C@@H]1CCCN1C(=O)[C@H](CC(C)C)NC(=O)[C@@H](N)[C@@H](C)O)C(=O)O` [Sur8], the EC50 was found to be 30 µM.
With `CC(C)C[C@H](NC(=O)[C@H](CCCCN)NC(=O)[C@H](CC(C)C)NC(=O)[C@H](Cc1ccccc1)NC(=O)[C@H](CCC(=O)O)NC(=O)CNC(=O)[C@H](CC(C)C)NC(=O)[C@@H](NC(=O)[C@H](CC(C)C)NC(=O)[C@@H](N)CCC(=O)O)[C@@H](C)O)C(=O)O` [Sur9], the EC50 turned out to be 10 µM.

Staying with this assay, now noted: Example 4.
Regarding `CC(C)C[C@H](NC(=O)[C@H](CCC(=O)O)NC(=O)[C@H](CCCCN)NC(=O)[C@H](Cc1ccccc1)NC(=O)[C@H](CS)NC(=O)[C@H](Cc1ccccc1)NC(=O)[C@H](Cc1ccccc1)NC(=O)[C@H](CS)NC(=O)[C@H](CCC(N)=O)NC(=O)[C@H](C)NC(=O)[C@@H](N)CC(C)C)C(=O)O` [Sur54-64] (H-LAQCFFCFKEL-OH; N-terminus and C-terminus assumed), the “C50 (half maximal recovery of HLA-A2)” value is “did not bind”.
Still for that read-out and setting: the result for KLDRERAKNKI [Sur103-113] reads “did not bind”; that for PTLPPAWQPFL [Sur4-14], “did not bind”.
For the compound SVKKQFEELTL [Sur88-98], the “C50 (half maximal recovery of HLA-A2)” value is “did not bind”.

The same assay, now with this note: Example 4; read-out: C50 (half maximal recovery of HLA-A2).
Take `CC(C)C[C@H](NC(=O)[C@H](CCCCN)NC(=O)[C@H](CC(C)C)NC(=O)[C@H](Cc1ccccc1)NC(=O)[C@H](CCC(=O)O)NC(=O)CNC(=O)[C@H](CC(C)C)NC(=O)[C@@H](NC(=O)[C@@H](N)CC(C)C)[C@@H](C)O)C(=O)O` [Sur1]: the EC50 was above 100 µM.

The same assay, now with this note: Table 4, HLA-A2, 11-mers and controls; read-out: C50.
As to KLDRERAKNKI [Sur103-113], the EC50 is above 100 µM.
As to PTLPPAWQPFL [Sur4-14], the EC50 was above 100 µM.
For the compound SVKKQFEELTL [Sur88-98], the EC50 was above 100 µM.
